Common to all, as to test: relative viability (nuclei count vs DMSO), 5 days (fraction); higher = more cells survive
Compound in the experiment “QS11 + Decitabine”: C1CC2=C(C1)C=C(C=C2)OC3=NC(=C4C(=N3)N(C=N4)CC5=CC=C(C=C5)C6=CC=CC=C6)N[C@@H](CC7=CC=CC=C7)CO [QS11] + Nc1ncn([C@H]2C[C@H](O)[C@@H](CO)O2)c(=O)n1 [Decitabine] (partner 2 µM)
In short, it runs like this:
(§1)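 Five library-drug doses in √10 steps were combined with a fixed anchor-drug dose, or a single drug was given alone, by pin tool to lung cancer cell lines in 1536-well plates the day after seeding. Nuclei were stained and counted after 5 days. Relative viability is the nuclei count in treated wells over that in vehicle wells, taken as the median of duplicate plates.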

Compound in the experiment “Darinaparsin + OSI-027”: C[As](C)SC[C@H](NC(=O)CC[C@H](N)C(=O)O)C(=O)NCC(=O)O [Darinaparsin] + COc1cccc2cc(-c3nc([C@H]4CC[C@H](C(=O)O)CC4)n4ncnc(N)c34)[nH]c12 [OSI-027] (partner 0.5 µM)
In a few lines:
as §1

Compound in experiment [1]: C[As](C)SC[C@H](NC(=O)CC[C@H](N)C(=O)O)C(=O)NCC(=O)O [Darinaparsin] + Nc1ncn([C@H]2C[C@H](O)[C@@H](CO)O2)c(=O)n1 [Decitabine] (partner 2 µM)
In a few lines: as §1

Compound in experiment [2]: C[As](C)SC[C@H](NC(=O)CC[C@H](N)C(=O)O)C(=O)NCC(=O)O [Darinaparsin] + CS(=O)(=O)N1CCN(Cc2cc3nc(-c4cccc5[nH]ncc45)nc(N4CCOCC4)c3s2)CC1 [Pictilisib] (partner 1 µM)
In a few lines:
as §1

Compound in the experiment “AZ628 + AZD7762”: CC1=C(C=C(C=C1)NC(=O)C2=CC(=CC=C2)C(C)(C)C#N)NC3=CC4=C(C=C3)N=CN(C4=O)C [AZ628] + NC(=O)Nc1cc(-c2cccc(F)c2)sc1C(=O)N[C@H]1CCCNC1 [AZD7762] (partner 0.2 µM)
In a few lines:
as §1

The source of these data is the supplement of paper PMC10307832.

Turning to LCLC-97TM1, the relative viability with QS11 + Decitabine (first compound 0.253 µM) turned out to be 0.213; with QS11 + Decitabine (first compound 2.53 µM) it was 0.257; with QS11 + Decitabine (first compound 8 µM), 0.219; with Darinaparsin + OSI-027 (first compound 0.08 µM) it was 0.654; with Darinaparsin + OSI-027 (first compound 0.8 µM), 0.468; with Darinaparsin + OSI-027 (first compound 2.53 µM), 0.514. Further, the relative viability in the experiment with Darinaparsin + OSI-027 (first compound 8 µM) was 0.615; in experiment [1] (first compound 0.08 µM) it was 0.246; in experiment [1] (first compound 0.8 µM), 0.252; in experiment [1] (first compound 2.53 µM), 0.211; in experiment [1] (first compound 8 µM) it was 0.258; in experiment [2] (first compound 0.08 µM) it was 0.191. Besides, the relative viability in experiment [2] (first compound 0.8 µM) amounted to 0.153; in experiment [2] (first compound 2.53 µM) it was 0.15; in experiment [2] (first compound 8 µM), 0.178; with AZ628 + AZD7762 (first compound 0.08 µM), 0.307; with AZ628 + AZD7762 (first compound 0.253 µM) it was 0.331; in the experiment with AZ628 + AZD7762 (first compound 0.8 µM), 0.243. Also, the figures for the relative viability in the experiment with AZ628 + AZD7762 (first compound 2.53 µM) and with AZ628 + AZD7762 (first compound 8 µM) were 0.201 and 0.108, respectively.
